From US20210002725A1, “METHODS FOR THE DIAGNOSIS OF METABOLIC DISORDERS USING EPIMETABOLIC SHIFTERS, MULTIDIMENSIONAL INTRACELLULAR MOLECULES, OR ENVIRONMENTAL INFLUENCES” (Berg LLC, priority 2009, published 2021)

Columns and labels:
SCC cells = experiment: Real-time PCR Apoptosis Array; type: cell-based; settings: 100 μM Q10
Text: The control cells were untreated cells.
RNA was quantified by measuring Optical Density at 260 nm.

[1] = system: Pyruvate Kinase M2 (PKM2); experiment: Western blot of Pyruvate Kinase M2 levels in cells treated with Coenzyme Q10; type: cell-based, human
Protocol: The samples were processed and run on a 4-12% Bis-Tris Novex NuPAGE gel as described above. The gels were run, transferred and stained essentially as described above.
The lactate dehydrogenase blots were stripped by incubating for 30 minutes with methanol, followed by two 10 minute washes with TBS-T, then 30 minutes of incubation with Stripping buffer at 50 deg C., and followed by two washes with 100 ml or more of TBS-T for 30′ each. The 2 blots were scanned in laser scanner to check for complete stripping. The blots were activated with methanol for 5 seconds, washed with water for 5 minutes, and TBST for 15 minutes. The blots were blocked for 1 hour with 5% blocking reagent in TBS-T at room temperature and then washed 3 times with TBS-T (1×-15′; 2×5′ each) and probed with the rabbit polyclonal antibody for Pyruvate Kinase M2 in 5% BSA (NOVUS BIOLOGICALS catalog #H00005315-D01P) at 1:500 dilution overnight at 4 deg C with shaking. After the overnight incubation with primary antibody for Pyruvate Kinase M2, the membranes were washed 3 times with TBS-T (1×-15′; 2×5′ each) and probed with the secondary antibody (antirabbit; 1:10,000 dilution) for 1 h on the orbital tilting shaker at room temperature. After 1 h of incubation with secondary antibodies, the blots were washed 3 times with TBS-T (1×-15′; 2×5′ each) and then incubated with ECF reagent for 5 minutes and then each blot scanned with 5100 Fuji Laser scanner at 25 uM resolution, 16 bit, green laser, at 400V and at 500 V.
The HASMC samples were processed and the gels were run, transferred, stained and scanned essentially as described above.
The above blots were stripped by incubating for 30 minutes with methanol, followed by two 10 minute washes with TBS-T, then 30 minutes of incubation with Stripping buffer at 50 deg C., and followed by two washes with 100 ml or more of TBS-T for 30′ each. The blots were scanned in laser scanner to check for complete stripping. The blots were activated with methanol for 5 seconds, washed with water for 5 minutes, and TBST for 15 minutes. The blots were blocked for 1 hour with 5% blocking reagent in TBS-T at room temperature and then washed 3 times with TBS-T (1×-15′; 2×5′ each) and probed with the primary antibody for PKM2, SDHB or SDHC in 5% BSA in TBS-T by incubation overnight at 4 deg C. with gentle shaking. The primary antibody for SDHC (ABNOVA H00006391-M02; antimouse) was at 1:500 dilution. The primary antibody for SDHB was from Abcam ab4714-200; antimouse; at 1:1000 dilution. The primary antibody for Pyruvate Kinase M2 (PKM2) was from Novus Biologicals H00005315-DOIP; antirabbit; at 1:500 dilution. After incubation with primary antibodies, the membranes were washed 3 times with TBS-T (1×-15′; 2×5′ each) and probed with the secondary antibody (SDHB & C antimouse; and PKM2 antirabbit; 1:10,000 dilution) for 1 hon the orbital tilting shaker at room temperature. After 1 h of incubation, the blots were washed 3 times with TBS-T (1×-15′; 2×5′ each) and incubated with ECF reagent for 5 minutes and then each blot scanned with 5100 Fuji Laser scanner at 25 uM resolution, 16 bit, green laser, at 400V and at 500 V.

Bcl2 = Bcl2 level after administration of CoQ-10 in the presence of VEGF; type: cell-based
Text: The term “Multidimensional Intracellular Molecule (MIM)”, is an isolated version or synthetically produced version of an endogenous molecule that is naturally produced by the body and/or is present in at least one cell of a human. A MIM is characterized by one or more, two or more, three or more, or all of the following functions. MIMs are capable of entering a cell, and the entry into the cell includes complete or partial entry into the cell, as long as the biologically active portion of the molecule wholly enters the cell. MIMs are capable of inducing a signal transduction and/or gene expression mechanism within a cell. MIMs are multidimensional in that the molecules have both a therapeutic and a carrier, e.g., drug delivery, effect. MIMs also are multidimensional in that the molecules act one way in a disease state and a different way in a normal state. […] Preferably, MIMs selectively act in cells of a disease state, and have substantially no effect in (matching) cells of a normal state. Preferably, MIMs selectively renders cells of a disease state closer in phenotype, metabolic state, genotype, mRNA/protein expression level, etc. to (matching) cells of a normal state.

With `COC1=C(OC)C(=O)C(C/C=C(\C)CC/C=C(\C)CC/C=C(\C)CC/C=C(\C)CC/C=C(\C)CC/C=C(\C)CC/C=C(\C)CC/C=C(\C)CC/C=C(\C)CCC=C(C)C)=C(C)C1=O` [Q10, Coenzyme Q10] the “Regulation (mRNA) at 6 hours” value (SCC cells) was “Down regulated at 6”, the “Regulation (mRNA) at 24 hours” value (SCC cells; gene BAX) was “Up regulated at 24 hours” and the “Regulation (mRNA) at 24 hours” value (SCC cells; gene BCL2L1) was “hours and then up”. The “Regulation (mRNA) at 24 hours” value (SCC cells; gene BNIP3) was “Down regulated at 24”, the “PKM2 Upper Band Normalized Intensity” value ([1]; HASMC, 5 g, 48 h, 50 μM) was 811 and the “PKM2 Upper Band Normalized Intensity” value ([1]; HASMC, 5 g, 48 h, 100 μM) was 611. The “PKM2 Upper Band Normalized Intensity” value ([1]; HASMC, 22 G, 24 h, 50 μM) was 477, the “PKM2 Upper Band Normalized Intensity” value ([1]; HASMC, 22 G, 24 h, 100 μM) was 701 and the “PKM2 Upper Band Normalized Intensity” value ([1]; HASMC, 22 G, 48 h, 50 μM) was 595. For the same compound, the “PKM2 Upper Band Normalized Intensity” value ([1]; HASMC, 22 G, 48 h, 100 μM) was 496, the “PKM2 Upper Band Normalized Volume” value ([1]; HepG2, 5 g, 24 h, 50 μM) was 29269 and the “PKM2 Upper Band Normalized Volume” value ([1]; HepG2, 5 g, 24 h, 100 μM) was 18307. For the same compound, the “PKM2 Upper Band Normalized Intensity” value ([1]; HepG2, 5 g, 48 h, 50 μM) was 303, the “PKM2 Upper Band Normalized Intensity” value ([1]; HepG2, 5 g, 48 h, 100 μM) was 354 and the “PKM2 Upper Band Normalized Volume” value ([1]; HepG2, 22 G, 24 h, 50 μM) was 22294. The “PKM2 Upper Band Normalized Volume” value ([1]; HepG2, 22 G, 24 h, 100 μM) was 19560, the “PKM2 Upper Band Normalized Intensity” value ([1]; HepG2, 22 G, 48 h, 50 μM) was 562 and the “PKM2 Upper Band Normalized Intensity” value ([1]; HepG2, 22 G, 48 h, 100 μM) was 601. The “level of Bcl2” value (Bcl2; melanoma cell, in the presence of VEGF) was “decreased level of Bcl2” and the “levels of Bcl2” value (Bcl2; normal fibroblast, co-administration with VEGF) was “no effect”.
